Measurements reported in patent publication US10005721B2, “Dimethylbenzoic acid compounds” (Eli Lilly and Company, priority 2013, dated 2018).

Key:
[1] = target: T1, human EP1 (Homo sapiens, UniProt P34995); assay: In vitro binding to human EP1 ([3H]-PGE2 displacement, membranes); conditions: HEK293 membranes, geometric mean ± SD, read-out: hEP1, Ki
T1 construct: expressed in transfected cells
T1 sequence (P34995 1-402): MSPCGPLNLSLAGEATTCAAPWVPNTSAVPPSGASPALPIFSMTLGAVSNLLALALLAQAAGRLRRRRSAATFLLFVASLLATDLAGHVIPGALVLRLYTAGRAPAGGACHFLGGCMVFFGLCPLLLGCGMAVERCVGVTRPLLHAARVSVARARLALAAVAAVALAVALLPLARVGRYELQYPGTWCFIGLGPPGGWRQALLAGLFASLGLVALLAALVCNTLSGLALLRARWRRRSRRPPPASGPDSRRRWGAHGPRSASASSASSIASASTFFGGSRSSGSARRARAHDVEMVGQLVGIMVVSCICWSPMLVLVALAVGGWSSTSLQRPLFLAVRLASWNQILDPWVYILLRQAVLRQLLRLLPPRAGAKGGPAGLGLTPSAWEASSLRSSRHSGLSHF
Description: (§1) hEP1 and hEP4 membranes are prepared from recombinant HEK293 cells stably expressing human EP1 (Genbank accession number AY275470) or EP4 (Genbank accession number AY429109) receptors. hEP2 and hEP3 membranes are prepared from HEK293 cells transiently transfected with EP2 (Genbank accession number AY275471) or EP3 (isoform VI: Genbank accession number AY429108) receptor plasmids. Frozen cell pellets are homogenized in homogenization buffer using a Teflon/glass homogenizer. Membrane protein is aliquoted and quick frozen on dry ice prior to storage at −80° C. Homogenization buffer contained 10 mM Tris-HCl, pH 7.4, 250 mM sucrose, 1 mM EDTA, 0.3 mM indomethacin and plus Complete™, with EDTA, obtained from Roche Molecular Biochemicals (Catalog Number 1 697 498).
(§2) Kd values for [^3H]-PGE2 binding to each receptor are determined by saturation binding studies or homologous competition. […] Non-specific binding is calculated by comparing binding in the presence and absence of 2 μM of PGE2. The membranes are harvested by filtration (TomTek harvester), washed 4 times with cold buffer (10 mM MES pH 6.0 with KOH, 10 mM MgCl2), dried in a 60° C. oven, and the radioactivity is quantified as counts per minute (CPM) using a TopCount detector. Percent specific binding is calculated as the percent of the binding in the absence of any inhibitor, corrected for binding in the presence of 2 uM of PGE2. […]

[2] = target: T2, human EP2 (Homo sapiens, UniProt P43116); assay: In vitro binding to human EP2 ([3H]-PGE2 displacement, membranes); conditions: HEK293 membranes, geometric mean ± SD, read-out: hEP2, Ki
T2 construct: expressed in transfected cells; host or cells: HEK293 (transient)
T2 sequence (P43116 whole entry): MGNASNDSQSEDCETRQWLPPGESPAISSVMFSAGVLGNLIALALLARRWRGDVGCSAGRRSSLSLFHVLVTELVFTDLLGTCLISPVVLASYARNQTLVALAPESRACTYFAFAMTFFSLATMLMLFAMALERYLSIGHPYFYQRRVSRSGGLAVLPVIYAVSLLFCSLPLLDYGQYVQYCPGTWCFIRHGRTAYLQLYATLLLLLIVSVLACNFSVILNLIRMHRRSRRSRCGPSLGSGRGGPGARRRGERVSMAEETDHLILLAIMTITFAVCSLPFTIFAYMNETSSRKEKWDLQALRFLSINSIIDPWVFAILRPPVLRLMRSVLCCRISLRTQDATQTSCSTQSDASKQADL
Description: as §1, §2

[3] = target: T3, human EP3 (isoform VI) (Homo sapiens, UniProt P43115); assay: In vitro binding to human EP3 ([3H]-PGE2 displacement, membranes); conditions: HEK293 membranes, geometric mean ± SD, read-out: hEP3, Ki
T3 construct: expressed in transfected cells; host or cells: HEK293 (transient)
T3 sequence (P43115 1-374 isoform P43115-4): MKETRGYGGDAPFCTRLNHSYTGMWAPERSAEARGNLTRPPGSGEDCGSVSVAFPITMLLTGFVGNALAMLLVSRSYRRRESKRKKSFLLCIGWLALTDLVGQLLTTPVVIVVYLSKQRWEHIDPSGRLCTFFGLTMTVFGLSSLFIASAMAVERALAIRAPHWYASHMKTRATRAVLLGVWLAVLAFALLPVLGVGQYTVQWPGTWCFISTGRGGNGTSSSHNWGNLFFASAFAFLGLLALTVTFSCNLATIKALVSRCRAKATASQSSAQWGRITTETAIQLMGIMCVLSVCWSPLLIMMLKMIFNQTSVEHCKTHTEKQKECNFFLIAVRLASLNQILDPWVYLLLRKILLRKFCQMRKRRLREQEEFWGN
Description: as §1, §2

[4] = target: T4, human EP4 (Homo sapiens, UniProt P35408); assay: In vitro binding to human EP4 ([3H]-PGE2 displacement, membranes); conditions: HEK293 membranes, geometric mean ± SD, read-out: hEP4, Ki
T4 construct: expressed in transfected cells
T4 sequence (P35408 whole entry): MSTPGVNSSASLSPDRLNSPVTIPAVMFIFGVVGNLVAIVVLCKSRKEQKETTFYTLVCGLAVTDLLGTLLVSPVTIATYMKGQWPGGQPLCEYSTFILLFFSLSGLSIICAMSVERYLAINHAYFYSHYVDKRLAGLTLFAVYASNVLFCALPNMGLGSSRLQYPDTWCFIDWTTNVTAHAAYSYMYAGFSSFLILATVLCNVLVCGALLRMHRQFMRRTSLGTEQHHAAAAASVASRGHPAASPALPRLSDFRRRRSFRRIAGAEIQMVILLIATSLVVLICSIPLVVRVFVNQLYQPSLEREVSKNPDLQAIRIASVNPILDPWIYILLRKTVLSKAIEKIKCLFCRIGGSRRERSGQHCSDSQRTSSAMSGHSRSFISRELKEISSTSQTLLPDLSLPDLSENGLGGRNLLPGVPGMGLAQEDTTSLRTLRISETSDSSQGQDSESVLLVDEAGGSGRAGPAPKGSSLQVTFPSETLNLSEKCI
Description: as §1, §2

[5] = target: T4, human EP4; assay: In vitro human EP4 functional antagonist activity (PGE2-stimulated cAMP, HTRF, HEK293); type: cell-based; conditions: HEK293 cells expressing human EP4, EC80 of PGE2; geometric mean ± SD; read-out: IC50, inhibition of PGE2-stimulated cAMP production, human EP4
Description: Assays are conducted in recombinant HEK293 cells stably expressing human EP4 receptor. The cell lines are maintained by culturing in DMEM with high glucose and pyridoxine hydrochloride (Invitrogen) supplemented with 10% fetal bovine serum (FBS), 1 mM sodium pyruvate, 10 mM HEPES, […] and 2 mM L-glutamine. Confluent cultures are grown at 37° C. in an atmosphere containing 5% CO2. Cells are harvested using 2.5% Trypsin-EDTA, suspended in freeze media (FBS with 6% DMSO) at 10^7 cells/mL and aliquots are stored in liquid nitrogen. Just before assay, cells are thawed in DMEM, centrifuged, and resuspended in cAMP buffer.
The inhibition of PGE2-stimulated cAMP production by EP4 antagonists is measured using HTRF; (Cisbio catalog #62AM4PEB). […] The HTRF signal is detected using an EnVision® plate reader (Perkin-Elmer) to calculate the ratio of fluorescence at 665 nm to 620 nm. […] Results are expressed as the geometric mean±standard deviation; n=number of independent determinations. The standard deviation is calculated by the delta method, being Slog IC50×geometric mean×ln(10).

[6] = target: T5, rat EP4 (Rattus norvegicus, UniProt P43114); assay: In vitro rat EP4 functional antagonist activity (PGE2-stimulated cAMP, HTRF, HEK293); type: cell-based; conditions: HEK293 cells expressing rat EP4, PGE2 at EC80, cAMP HTRF; read-out: IC50 measured at rat EP4
T5 construct: expressed in transfected cells
T5 sequence (P43114 whole entry): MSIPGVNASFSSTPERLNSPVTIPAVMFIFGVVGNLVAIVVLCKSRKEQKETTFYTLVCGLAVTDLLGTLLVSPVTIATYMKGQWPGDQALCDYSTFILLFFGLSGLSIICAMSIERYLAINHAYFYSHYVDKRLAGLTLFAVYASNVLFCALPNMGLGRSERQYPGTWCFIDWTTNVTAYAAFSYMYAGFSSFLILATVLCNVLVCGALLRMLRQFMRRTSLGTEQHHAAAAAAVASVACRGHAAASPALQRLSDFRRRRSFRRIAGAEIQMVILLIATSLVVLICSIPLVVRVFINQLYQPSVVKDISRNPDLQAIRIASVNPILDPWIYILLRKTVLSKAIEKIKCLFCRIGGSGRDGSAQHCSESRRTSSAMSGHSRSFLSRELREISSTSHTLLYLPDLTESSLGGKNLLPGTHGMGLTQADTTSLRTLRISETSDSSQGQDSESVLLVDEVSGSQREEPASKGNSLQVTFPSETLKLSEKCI
Description: Rat EP4 cDNA (Genebank Accession# NM 03276) is cloned into pcDNA 3.1 vector and subsequently transfected in HEK293 cells for receptor expression. Rat EP4 stable clone is scaled up and then frozen down as cell bank for future compounds screening. To test EP4 antagonist compounds in rEP4 cells, thaw the frozen cells and then resuspend cells in cAMP assay buffer. The cAMP buffer is made by HBSS without Phenol Red (Hyclone, SH30268) supplemented with 20 mM HEPES (Hyclone, SH30237), 0.1% BSA (Gibco, 15260) and 125 μM IBMX (Sigma, 15879). The cells are plated into 96-well half area flat-bottom polystyrene black plates (Costar 3694). Compounds are serial diluted with DMSO to give 10-point concentration response curves. Then diluted compounds are added into cAMP assay buffer which contains PGE2 (Cayman 14010, in a concentration predetermined to produce an EC80) at ratio of DMSO/buffer at 1/100. The cells are treated with compounds in the presence of PGE2 (EC80 concentration) for 30 minutes at room temperature. The cAMP levels generated from the cells are quantified by a cAMP HTRF assay kit (Cisbio 62AM4PEC). The plates are read on an EnVision plate reader using HTRF optimized protocol (PerkinElmer). IC50's are calculated using Graphpad Prism (v. 4) nonlinear regression, sigmoidal dose response curve fitting.

[7] = system: LPS-induced TNFα production in human whole blood; assay: In vitro antagonist activity in human whole blood (reversal of PGE2 inhibition of LPS-induced TNFα); type: cell-based; conditions: 10 μg/mL LPS, 10 nM PGE2, geometric mean ± SD, read-out: IC50, reversal of inhibitory effect of PGE2 on LPS-induced TNFα production
From the text: The inhibitory effects of PGE2 on LPS-induced TNFα production from macrophages/monocytes are believed to be mediated by EP4 receptors (See Murase, A., et al., Life Sciences, 82:226-232 (2008)). The ability of the compound of Example 1 to reverse the inhibitory effect of PGE2 on LPS-induced TNFα production in human whole blood is an indicia of functional activity.
Blood is collected from normal volunteer donors into sodium heparin vacutainer tubes. Donors have not taken NSAIDs or celecoxib within 48 hours or glucocorticoids within two weeks of the donation. All tubes/donor are pooled into 50 mL Falcon conical centrifuge tubes and 98 μL/well is distributed into 96-well tissue culture plates (Falcon 3072). […] TNFα levels in 2 μL plasma are quantified by a commercially available enzyme immunoassay (R&D Systems DY210), using Immulon 4 HBX plates (Thermo 3855) and 3,3′,5,5′ tetramethylbiphenyl-4,4′-diamine substrate (KPL 50-76-03). The plates are read at A450-A650 on a plate reader (Molecular Devices Versamax) using SOFTmaxPRO (v. 4.3.1) software. IC50s are calculated using Graphpad Prism (v. 4) nonlinear regression, sigmoidal dose response curve fitting. Results are expressed as the geometric mean±standard deviation; n=number of independent determinations. The standard deviation is calculated by the delta method, being SDlog IC50×geometric mean×ln(10).

Ki [1] [nM] | Ki [2] [nM] | Ki [3] [nM] | Ki [4] [nM] | IC50 [5] [nM] | IC50 [6] [nM] | IC50 [7] [nM] | Structure (SMILES)
> 18800 | 5850 ± 1010 | > 14800 | 2.18 ± 1.74 | 2.31 ± 2.02 | 1.51 | 59.5 ± 37.8 | Cc1ccc(-c2cccc(CO)c2)cc1C(=O)Nc1c(C)ccc(C(=O)O)c1C [Example 1, 3-[[5-[3-(Hydroxymethyl)phenyl]-2-methyl-benzoyl]amino]-2,4-dimethyl-benzoic acid]
> 17500 | > 18900 | > 14000 | 2.07 ± 1.31 | – | – | – | Cc1ccc(-c2cccc(CO)c2)nc1C(=O)Nc1c(C)ccc(C(=O)O)c1C [Example 22, 3-[[6-[3-(Hydroxymethyl)phenyl]-3-methyl-pyridine-2-carbonyl]amino]-2,4-dimethyl-benzoic acid]
